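Five compound concentrations were applied to cells in 96-well plates for 48 hours; endpoints were derived by simple linear interpolation of the resulting dose-response curve. GI50 = concentration required for 50% inhibition of growth. TGI: total growth inhibition.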
Key:
Test in all cases: NCI anticancer screen, dose series, 48 h
786-0 renal = tested on: 786-0 renal
A549 NSCLC = tested on: A549 NSCLC
ACHN renal = tested on: ACHN renal
BT-549 breast = tested on: BT-549 breast
CCRF-CEM leukemia = tested on: CCRF-CEM leukemia
COLO 205 colon = tested on: COLO 205 colon
DU-145 prostate = tested on: DU-145 prostate
EKVX NSCLC = tested on: EKVX NSCLC
HCC-2998 colon = tested on: HCC-2998 colon
HCT-116 colon = tested on: HCT-116 colon
HCT-15 colon = tested on: HCT-15 colon
HL-60(TB) leukemia = tested on: HL-60(TB) leukemia
HOP-62 NSCLC = tested on: HOP-62 NSCLC
HOP-92 NSCLC = tested on: HOP-92 NSCLC
HS 578T breast = tested on: HS 578T breast
HT29 colon = tested on: HT29 colon
IGROV1 ovarian = tested on: IGROV1 ovarian
KM12 colon = tested on: KM12 colon
M14 melanoma = tested on: M14 melanoma
MALME-3M melanoma = tested on: MALME-3M melanoma
MCF7 breast = tested on: MCF7 breast
MDA-MB-231 breast = tested on: MDA-MB-231 breast
MDA-MB-435 = tested on: MDA-MB-435
MDA-N = tested on: MDA-N
MOLT-4 leukemia = tested on: MOLT-4 leukemia
NCI-H226 lung = tested on: NCI-H226 lung
NCI-H23 lung = tested on: NCI-H23 lung
NCI-H460 lung = tested on: NCI-H460 lung
NCI-H522 lung = tested on: NCI-H522 lung
NCI/ADR-RES ovarian = tested on: NCI/ADR-RES ovarian
OVCAR-3 ovarian = tested on: OVCAR-3 ovarian
OVCAR-4 ovarian = tested on: OVCAR-4 ovarian
OVCAR-5 ovarian = tested on: OVCAR-5 ovarian
OVCAR-8 ovarian = tested on: OVCAR-8 ovarian
PC-3 prostate = tested on: PC-3 prostate
RPMI-8226 leukemia = tested on: RPMI-8226 leukemia
RXF 393 renal = tested on: RXF 393 renal
SF-268 CNS = tested on: SF-268 CNS
SF-295 CNS = tested on: SF-295 CNS
SF-539 CNS = tested on: SF-539 CNS
SK-MEL-28 melanoma = tested on: SK-MEL-28 melanoma
SK-MEL-5 melanoma = tested on: SK-MEL-5 melanoma
SK-OV-3 ovarian = tested on: SK-OV-3 ovarian
SN12C renal = tested on: SN12C renal
SNB-19 CNS = tested on: SNB-19 CNS
SNB-75 CNS = tested on: SNB-75 CNS
SR leukemia = tested on: SR leukemia
SW-620 colon = tested on: SW-620 colon
T-47D breast = tested on: T-47D breast
TK-10 renal = tested on: TK-10 renal
U251 CNS = tested on: U251 CNS
UACC-257 melanoma = tested on: UACC-257 melanoma
UACC-62 melanoma = tested on: UACC-62 melanoma
CAKI-1 renal = tested on: CAKI-1 renal
K-562 leukemia = tested on: K-562 leukemia
LOX IMVI melanoma = tested on: LOX IMVI melanoma
SK-MEL-2 melanoma = tested on: SK-MEL-2 melanoma
UO-31 renal = tested on: UO-31 renal

## O=C(CN=C(CN(c1ccccc1)c1ccccc1)Oc1c(Cl)cc(Cl)cc1Cl)N1c2ccccc2Sc2ccccc21
786-0 renal
  TGI: > 100 µM
A549 NSCLC
  TGI: > 100 µM
ACHN renal
  TGI: > 100 µM
BT-549 breast
  TGI: > 100 µM
CCRF-CEM leukemia
  TGI: > 100 µM
COLO 205 colon
  TGI: > 100 µM
DU-145 prostate
  TGI: > 100 µM
EKVX NSCLC
  TGI: > 100 µM
HCC-2998 colon
  TGI: > 100 µM
HCT-116 colon
  TGI: > 100 µM
HCT-15 colon
  TGI: > 100 µM
HL-60(TB) leukemia
  TGI: > 100 µM
HOP-62 NSCLC
  TGI: > 100 µM
HOP-92 NSCLC
  TGI: 57.2 µM
HS 578T breast
  TGI: > 100 µM
HT29 colon
  TGI: > 100 µM
IGROV1 ovarian
  TGI: > 100 µM
KM12 colon
  TGI: > 100 µM
M14 melanoma
  TGI: > 100 µM
MALME-3M melanoma
  TGI: > 100 µM
MCF7 breast
  TGI: > 100 µM
MDA-MB-231 breast
  TGI: > 100 µM
MDA-MB-435
  TGI: > 100 µM
MDA-N
  TGI: > 100 µM
MOLT-4 leukemia
  TGI: > 100 µM
NCI-H226 lung
  TGI: > 100 µM
NCI-H23 lung
  TGI: > 100 µM
NCI-H460 lung
  TGI: > 100 µM
NCI-H522 lung
  TGI: > 100 µM
NCI/ADR-RES ovarian
  TGI: > 100 µM
OVCAR-3 ovarian
  TGI: > 100 µM
OVCAR-4 ovarian
  TGI: > 100 µM
OVCAR-5 ovarian
  TGI: > 100 µM
OVCAR-8 ovarian
  TGI: > 100 µM
PC-3 prostate
  TGI: > 100 µM
RPMI-8226 leukemia
  TGI: > 100 µM
RXF 393 renal
  TGI: 27.4 µM
SF-268 CNS
  TGI: > 100 µM
SF-295 CNS
  TGI: > 100 µM
SF-539 CNS
  TGI: > 100 µM
SK-MEL-28 melanoma
  TGI: > 100 µM
SK-MEL-5 melanoma
  TGI: > 100 µM
SK-OV-3 ovarian
  TGI: > 100 µM
SN12C renal
  TGI: > 100 µM
SNB-19 CNS
  TGI: > 100 µM
SNB-75 CNS
  TGI: > 100 µM
SR leukemia
  TGI: > 100 µM
SW-620 colon
  TGI: > 100 µM
T-47D breast
  TGI: > 100 µM
TK-10 renal
  TGI: > 100 µM
U251 CNS
  TGI: > 100 µM
UACC-257 melanoma
  TGI: > 100 µM
UACC-62 melanoma
  TGI: > 100 µM

## COc1ccc(Nc2nn3c(=O)c4c(C)c(C)sc4nc3s2)cc1
786-0 renal
  TGI: 51 µM
A549 NSCLC
  TGI: 38.5 µM
ACHN renal
  TGI: > 100 µM
BT-549 breast
  TGI: > 100 µM
CAKI-1 renal
  TGI: > 100 µM
CCRF-CEM leukemia
  TGI: > 100 µM
COLO 205 colon
  TGI: > 100 µM
DU-145 prostate
  TGI: 34.5 µM
HCT-116 colon
  TGI: 60.5 µM
HCT-15 colon
  TGI: > 100 µM
HL-60(TB) leukemia
  TGI: > 100 µM
HOP-62 NSCLC
  TGI: 76.8 µM
HOP-92 NSCLC
  TGI: 69.2 µM
HS 578T breast
  TGI: > 100 µM
HT29 colon
  TGI: > 100 µM
IGROV1 ovarian
  TGI: > 100 µM
K-562 leukemia
  TGI: > 100 µM
KM12 colon
  TGI: > 100 µM
LOX IMVI melanoma
  TGI: > 100 µM
M14 melanoma
  TGI: > 100 µM
MALME-3M melanoma
  TGI: 89 µM
MCF7 breast
  TGI: > 100 µM
MDA-MB-231 breast
  TGI: > 100 µM
MDA-MB-435
  TGI: > 100 µM
MDA-N
  TGI: > 100 µM
MOLT-4 leukemia
  TGI: > 100 µM
NCI-H226 lung
  TGI: > 100 µM
NCI-H23 lung
  TGI: 46.9 µM
NCI-H460 lung
  TGI: > 100 µM
NCI-H522 lung
  TGI: 67.1 µM
NCI/ADR-RES ovarian
  TGI: > 100 µM
OVCAR-3 ovarian
  TGI: 78.8 µM
OVCAR-4 ovarian
  TGI: 48.3 µM
OVCAR-5 ovarian
  TGI: > 100 µM
OVCAR-8 ovarian
  TGI: > 100 µM
PC-3 prostate
  TGI: > 100 µM
RXF 393 renal
  TGI: 36.7 µM
SF-268 CNS
  TGI: > 100 µM
SF-295 CNS
  TGI: > 100 µM
SF-539 CNS
  TGI: > 100 µM
SK-MEL-2 melanoma
  TGI: > 100 µM
SK-MEL-28 melanoma
  TGI: > 100 µM
SK-MEL-5 melanoma
  TGI: > 100 µM
SK-OV-3 ovarian
  TGI: > 100 µM
SN12C renal
  TGI: > 100 µM
SNB-19 CNS
  TGI: > 100 µM
SNB-75 CNS
  TGI: 49.8 µM
SR leukemia
  TGI: > 100 µM
SW-620 colon
  TGI: > 100 µM
T-47D breast
  TGI: 63.5 µM
TK-10 renal
  TGI: 78.8 µM
U251 CNS
  TGI: > 100 µM
UACC-257 melanoma
  TGI: > 100 µM
UACC-62 melanoma
  TGI: > 100 µM
UO-31 renal
  TGI: 35.3 µM

## COc1cccc(/C=C/c2ccc(S(N)(=O)=O)cc2)c1
786-0 renal
  TGI: 98.2 µM
A549 NSCLC
  GI50: 11 µM
  TGI: > 100 µM
ACHN renal
  GI50: 7.12 µM
  TGI: > 100 µM
BT-549 breast
  GI50: 6.38 µM
  TGI: > 100 µM
CAKI-1 renal
  GI50: 14.7 µM
  TGI: > 100 µM
CCRF-CEM leukemia
  GI50: 13.6 µM
  TGI: > 100 µM
COLO 205 colon
  TGI: 42.8 µM
DU-145 prostate
  TGI: > 100 µM
EKVX NSCLC
  TGI: > 100 µM
HCC-2998 colon
  TGI: 87.2 µM
HCT-116 colon
  TGI: 21.7 µM
HCT-15 colon
  GI50: 3.6 µM
  TGI: 65.4 µM
HL-60(TB) leukemia
  GI50: 10.4 µM
  TGI: 77.7 µM
HOP-62 NSCLC
  TGI: > 100 µM
HOP-92 NSCLC
  GI50: 3.29 µM
  TGI: 35.8 µM
HS 578T breast
  GI50: 25.5 µM
  TGI: 80.1 µM
HT29 colon
  GI50: 0.554 µM
  TGI: > 100 µM
IGROV1 ovarian
  GI50: 2.5 µM
  TGI: 28.9 µM
K-562 leukemia
  GI50: 20.6 µM
  TGI: > 100 µM
KM12 colon
  GI50: 12.2 µM
  TGI: > 100 µM
LOX IMVI melanoma
  GI50: 30.7 µM
  TGI: > 100 µM
M14 melanoma
  TGI: > 100 µM
MALME-3M melanoma
  TGI: > 100 µM
MCF7 breast
  TGI: > 100 µM
MDA-MB-231 breast
  TGI: 79.6 µM
MDA-MB-435
  GI50: 17.4 µM
  TGI: > 100 µM
MDA-N
  TGI: > 100 µM
MOLT-4 leukemia
  GI50: 26.8 µM
  TGI: > 100 µM
NCI-H226 lung
  GI50: 2.91 µM
  TGI: 17.5 µM
NCI-H23 lung
  GI50: 21 µM
  TGI: 57.5 µM
NCI-H460 lung
  TGI: > 100 µM
NCI/ADR-RES ovarian
  TGI: > 100 µM
OVCAR-3 ovarian
  TGI: 27.5 µM
OVCAR-4 ovarian
  GI50: 25 µM
  TGI: > 100 µM
OVCAR-5 ovarian
  TGI: > 100 µM
OVCAR-8 ovarian
  GI50: 31.6 µM
  TGI: > 100 µM
PC-3 prostate
  TGI: > 100 µM
RPMI-8226 leukemia
  GI50: 3.81 µM
  TGI: 19.8 µM
RXF 393 renal
  TGI: > 100 µM
SF-268 CNS
  GI50: 17.1 µM
  TGI: > 100 µM
SF-295 CNS
  TGI: > 100 µM
SF-539 CNS
  GI50: 16.8 µM
  TGI: 77.6 µM
SK-MEL-2 melanoma
  TGI: 36.8 µM
SK-MEL-28 melanoma
  TGI: > 100 µM
SK-MEL-5 melanoma
  TGI: 66.8 µM
SK-OV-3 ovarian
  TGI: > 100 µM
SN12C renal
  TGI: 89.6 µM
SNB-19 CNS
  TGI: > 100 µM
SNB-75 CNS
  TGI: 91.2 µM
SR leukemia
  GI50: 5.21 µM
  TGI: 40.8 µM
T-47D breast
  TGI: > 100 µM
TK-10 renal
  TGI: 90 µM
U251 CNS
  GI50: 5.54 µM
  TGI: > 100 µM
UACC-257 melanoma
  TGI: 60.9 µM
UACC-62 melanoma
  GI50: 14 µM
  TGI: 58.9 µM
UO-31 renal
  TGI: > 100 µM
